Test results: PMC12466917, “Evolutionary selection of trimethoprim-resistant dfrA genes in lytic phages affects phage and host fitness during infection” (Science Advances, 2025)

How the values were obtained:
DfrA52 = assay: NADPH oxidation followed at […] nm, nonlinear regression; assay type: biochemical, Escherichia phage vB_EcoM_BMB16; settings: 100 uM NADPH; dihydrofolate 5-100 uM; 50 mM Tris-HCl, 50 mM KCl, pH 7.5; ~25 C
DfrA43 = assay: as above; assay type: biochemical; settings: 100 uM NADPH; dihydrofolate 5-100 uM; 50 mM Tris-HCl, 50 mM KCl, pH 7.5; ~25 C

Nc1nc2c(c(=O)[nH]1)N=C(CNc1ccc(C(=O)N[C@@H](CCC(=O)O)C(=O)O)cc1)CN2 [dihydrofolate]
Km (DfrA52): 167 ± 34.8 µM | Km (DfrA43): 47.6 ± 21.6 µM
